Data from patent US12589156B2, “Benzimidazole and benzimidazolone based protac compounds for the targeted degradation of leucine rich repeat kinase 2 (LRRK2)” (Arvinas Operations, Inc., priority 2023, dated 2026).

Biological target: T1, WT LRRK2 (Homo sapiens, UniProt Q5S007)
T1 construct: endogenous in cells; host or cells: HEK293 (endogenous LRRK2 gene knock-in tagged with HiBit; stably expressing CMV-driven firefly luciferase)
Assay: LRRK2 HiBit degradation assay (Nano-Glo Dual Luciferase) in HEK293 cells with HiBit-tagged endogenous LRRK2
Format: cell-based
Description: Biological Assays Exemplary Assay for Testing LRRK2 Degradation Driven by Exemplary Hetero-Bifunctional Compounds Designed to Target LRRK2
The assay measures the degradation of LRRK2 in cells where the C-terminus (3′) of the endogenous gene has been tagged with a HiBit sequence in HEK293 cells. The cells also express firefly lucisferase, expressed from a Cytomegalovirus promoter and introduced into the HiBit tagged cells and stably expressed. The Nano-Glo® Dual Luciferase Reporter Assay System (Promega™, Madison, WI) was utilized.
Day 1—Preparation of Compound and Assay Plates. Two sets of plates were prepared: a triplicate set for the HiBit assay in white 384-well plates and a triplicate set of plate in black 384-well plates for the Alamar Blue cell viability assay. Briefly, the growth media (DMEM+Glutamax-10% fetal bovine serum-1% Penicillin-Streptomicin) from two T128 flasks was aspirated from the flasks. Cells were washed with Dulbecco's Phosphate Buffered Saline (dPBS) and aspirated. Trypsin (3 mL per flask) was added and the flasks were incubated for 2-3 minutes.
Ten mL of OptiMEM—10% fetal bovine-1% penicillin-streptomycin (hereinafter, “OptiMEM media”) was added to the flask and the cells and transferred to a 50 ml conical tube. A cell count (25 ul of cell into Effendorf vial+25 ul of Trypan Blue Stain) was performed and the cell density adjusted to 15,000 cell/45 μl/well (3.33×10^5/mL) in OptiMEM media.
Forty-five microliters of the cell suspension (15,000 cells) was aliquoted to each well of the white 384-well plate. The plates incubated at room temperature for 10 minutes before being placed in the 37° C.+5% CO2 incubator overnight
Day 2—Compound Treatment. Exemplary compounds were prepared at a 1 mM starting concentration and 1:3 serial dilution for 11 points CRC prepared and stored in the freezer. The Master Compound Plate was thawed overnight at room temperature. DMSO (20 μL) was added into column 24 of the Master Compound Plate for negative control and 20 μL of 300 μM of Compound 4 in column 23 as positive control.
Intermediate Compound Plate with 4% DMSO in OptiMEM Media. DMSO was added to warm OptiMEM media to achieve a 4% DMSO solution (approximately 50 mL/plate). One-hundred microliters of the OptiMEM-4% DMSO was aliquoted to each well of 384-Well Deep Well Microplates.
The Master Compound Plate and the Intermediate Compound Plate were spun down.
One microliter of compound from the Master Compound Plate was transferred into the Intermediate plate (a 1:100 dilution). The diluted mixture was mixed and 5 μL transferred into the assay plate (a 1:10 dilution) for the final starting concentration of 1 μM. The Treated Assay plates were incubated for 24 hours at 37° C.+5% CO2. The Master Compound Plate was sealed and store at room temperature for a second run that was performed within a week.
One set of white assay plates was warmed to room temperature (45 minute).
The One Glo luciferase mixture was prepared. The media from white 384-well assay plates was aspirated. Twenty-five μL of the One Glo luciferase mixture was added to each well of the assay plates. The plates were incubated on the bench (room temperature) for 45 minutes, including 10 minutes of shaking at 700 rpm. The luminescence of each plate was read on a plate reader.
1:100 DLR substrate and 1:100 LgBiT Protein dilution were added to the Promega Stop and Glo buffer and mixed just before addition to assay plates. Twenty-five microliters of Stop and Glo mixture was added to each well. Assay plates incubated for at least 45 minutes, including 10 minutes of shaking at 700 rpm. The luminescence of each plate was read on a plate reader.
Analysis of LRRK2 HiBit Screening assays. As mentioned above, plates were run in triplicate and the assay repeated twice (total of 6 replicate for exemplary compounds). For each treatment, measurements were taken for firefly luciferase for cell number, cell viability (Alamar Blue), and Nanoluc for the LRRK2-HiBit quantification. […]

[1] = Table 2, HiBit-tagged LRRK2 in HEK293 cells, 24 hours treatment, starting concentration 1 μM
[2] = HEK293, Table 2, maximal degradation, HiBit-tagged LRRK2 in HEK293 cells, 24 hours treatment
[3] = HEK293, Table 3, comparison with direct comparators, maximal degradation
[4] = Table 3, comparison with direct comparators, HiBit-tagged LRRK2 in HEK293 cells, 24 hours treatment

T1 sequence (Q5S007 whole entry): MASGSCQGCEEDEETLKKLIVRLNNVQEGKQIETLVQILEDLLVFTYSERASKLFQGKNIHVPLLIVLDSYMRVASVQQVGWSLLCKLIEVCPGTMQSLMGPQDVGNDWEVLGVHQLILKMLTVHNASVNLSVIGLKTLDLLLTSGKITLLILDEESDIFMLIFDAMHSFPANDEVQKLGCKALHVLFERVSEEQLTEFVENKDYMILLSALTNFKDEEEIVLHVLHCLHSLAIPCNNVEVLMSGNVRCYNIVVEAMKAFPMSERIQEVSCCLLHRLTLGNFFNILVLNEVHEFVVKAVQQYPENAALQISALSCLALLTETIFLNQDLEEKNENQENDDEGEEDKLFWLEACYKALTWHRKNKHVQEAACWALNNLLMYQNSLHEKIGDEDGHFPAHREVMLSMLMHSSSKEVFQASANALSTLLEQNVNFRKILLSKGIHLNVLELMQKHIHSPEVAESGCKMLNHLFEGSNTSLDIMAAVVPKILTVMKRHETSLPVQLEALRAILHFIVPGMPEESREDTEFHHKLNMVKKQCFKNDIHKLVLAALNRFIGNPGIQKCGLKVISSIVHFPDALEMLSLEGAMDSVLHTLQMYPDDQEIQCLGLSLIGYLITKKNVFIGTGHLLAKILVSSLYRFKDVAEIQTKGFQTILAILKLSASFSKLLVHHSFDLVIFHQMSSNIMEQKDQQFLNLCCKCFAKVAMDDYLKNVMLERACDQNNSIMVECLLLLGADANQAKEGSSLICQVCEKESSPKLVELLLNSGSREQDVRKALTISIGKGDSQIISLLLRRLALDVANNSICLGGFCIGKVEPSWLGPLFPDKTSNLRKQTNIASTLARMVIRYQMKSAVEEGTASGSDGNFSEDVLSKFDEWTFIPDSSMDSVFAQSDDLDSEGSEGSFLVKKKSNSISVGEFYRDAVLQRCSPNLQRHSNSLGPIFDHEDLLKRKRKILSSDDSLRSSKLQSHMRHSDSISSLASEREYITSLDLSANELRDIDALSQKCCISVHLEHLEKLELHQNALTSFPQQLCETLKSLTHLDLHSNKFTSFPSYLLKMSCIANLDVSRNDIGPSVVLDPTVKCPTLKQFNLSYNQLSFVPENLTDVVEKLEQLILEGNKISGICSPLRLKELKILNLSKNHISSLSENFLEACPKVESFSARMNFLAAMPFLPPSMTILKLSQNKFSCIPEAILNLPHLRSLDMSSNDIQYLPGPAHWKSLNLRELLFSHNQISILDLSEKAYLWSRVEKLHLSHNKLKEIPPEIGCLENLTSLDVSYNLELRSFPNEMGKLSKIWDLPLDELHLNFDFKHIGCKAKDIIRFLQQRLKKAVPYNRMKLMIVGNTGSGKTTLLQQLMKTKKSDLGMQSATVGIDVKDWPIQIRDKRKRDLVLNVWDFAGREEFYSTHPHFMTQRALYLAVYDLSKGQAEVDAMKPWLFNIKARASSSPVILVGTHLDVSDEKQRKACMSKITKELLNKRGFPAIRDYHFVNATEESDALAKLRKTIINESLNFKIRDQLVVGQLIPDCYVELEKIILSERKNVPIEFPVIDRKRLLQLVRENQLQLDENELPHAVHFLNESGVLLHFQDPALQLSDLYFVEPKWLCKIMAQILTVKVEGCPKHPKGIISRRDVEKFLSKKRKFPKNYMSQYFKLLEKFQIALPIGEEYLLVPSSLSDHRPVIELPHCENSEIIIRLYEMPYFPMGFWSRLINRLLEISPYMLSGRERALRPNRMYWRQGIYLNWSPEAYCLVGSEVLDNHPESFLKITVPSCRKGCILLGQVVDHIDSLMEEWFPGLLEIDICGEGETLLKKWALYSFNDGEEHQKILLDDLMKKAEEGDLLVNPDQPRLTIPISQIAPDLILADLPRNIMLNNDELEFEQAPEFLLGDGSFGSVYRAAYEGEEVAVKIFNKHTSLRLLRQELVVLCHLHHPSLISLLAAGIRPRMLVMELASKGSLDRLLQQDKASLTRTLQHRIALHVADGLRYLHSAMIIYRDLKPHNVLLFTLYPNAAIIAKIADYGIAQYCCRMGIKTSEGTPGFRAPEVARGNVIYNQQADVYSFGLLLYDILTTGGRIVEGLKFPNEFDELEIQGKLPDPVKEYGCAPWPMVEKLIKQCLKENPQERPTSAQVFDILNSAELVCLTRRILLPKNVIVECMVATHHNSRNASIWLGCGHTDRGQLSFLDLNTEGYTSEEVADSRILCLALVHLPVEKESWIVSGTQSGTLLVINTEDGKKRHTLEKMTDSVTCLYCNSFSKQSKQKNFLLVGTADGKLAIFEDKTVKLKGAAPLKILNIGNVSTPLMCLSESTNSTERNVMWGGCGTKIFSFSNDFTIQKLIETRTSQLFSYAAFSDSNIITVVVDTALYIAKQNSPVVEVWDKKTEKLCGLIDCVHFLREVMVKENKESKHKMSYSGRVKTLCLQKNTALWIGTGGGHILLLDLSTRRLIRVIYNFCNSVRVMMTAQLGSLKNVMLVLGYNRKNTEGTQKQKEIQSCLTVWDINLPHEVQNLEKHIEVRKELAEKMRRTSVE

Cn1c(=O)n(C2CCC(=O)NC2=O)c2ccc(N3CCC(OC4CCC(CN5CCN(c6cc(-c7n[nH]c8ccc(OC(C)(C)C)cc78)ncn6)CC5)CC4)CC3)cc21 (stereo not drawn) [Compound 54, rel-3-[3-methyl-2-oxo-5-(4-{[(1r,4r)-4-[(4-{6-[5-(tert-butoxy)-1H-indazol-3-yl]pyrimidin-4-yl}piperazin-1-yl)methyl]cyclohexyl]oxy}piperidin-1-yl)-2,3-dihydro-1H-1,3-benzodiazol-1-yl]piperidine-2,6-dione]
DC50 [1]: 0.33 nM | WT LRRK2 **Dmax (%) (Table 2, maximal degradation, HiBit-tagged LRRK2 in HEK293 cells, 24 hours treatment): 53%

Cn1c(=O)n(C2CCC(=O)NC2=O)c2ccc(N3CCC(O[C@H]4CC[C@H](CN5CCN(c6cc(-c7n[nH]c8ccc(OC9(C)CC9)cc78)ncn6)CC5)CC4)CC3)cc21 (stereo partly drawn) [Compound 6, 3-[3-methyl-2-oxo-5-(4-{[(1r,4r)-4-[(4-{6-[5-(1-methylcyclopropoxy)-1H-indazol-3-yl]pyrimidin-4-yl}piperazin-1-yl)methyl]cyclohexyl]oxy}piperidin-1-yl)-2,3-dihydro-1H-1,3-benzodiazol-1-yl]piperidine-2,6-dione]
Dmax [2]: 58% | Dmax [3]: 58% | DC50 [1]: 0.17 nM | DC50 [4]: 0.17 nM

CC1(Oc2ccc3[nH]nc(-c4cc(N5CCC(CN6CCN(CC7CCN(c8cc9ncn(C%10CCC(=O)NC%10=O)c9cc8F)CC7)CC6(C)C)CC5)ncn4)c3c2)CC1 (stereo not drawn) [Compound 40, 3-{5-[4-({3,3-dimethyl-4-[(1-{6-[5-(1-methylcyclopropoxy)-1H-indazol-3-yl]pyrimidin-4-yl}piperidin-4-yl)methyl]piperazin-1-yl}methyl)piperidin-1-yl]-6-fluoro-1H-1,3-benzodiazol-1-yl}piperidine-2,6-dione]
Dmax [2]: 59% | Dmax [3]: 59% | DC50 [1]: 4.2 nM | DC50 [4]: 4.2 nM

Cn1c(=O)n(C2CCC(=O)NC2=O)c2ccc(N3CCC(O[C@H]4CC[C@H](CN5CCN(c6cc(-c7n[nH]c8cnc(C9(C#N)CC9)cc78)ncn6)CC5)CC4)CC3)cc21 (single isomer, unassigned) [Compound 23, rel-1-{3-[6-(4-{[(1r,4r)-4-({1-[1-(2,6-dioxopiperidin-3-yl)-3-methyl-2-oxo-2,3-dihydro-1H-1,3-benzodiazol-5-yl]piperidin-4-yl}oxy)cyclohexyl]methyl}piperazin-1-yl)pyrimidin-4-yl]-1H-pyrazolo[3,4-c]pyridin-5-yl}cyclopropane-1-carbonitrile]
Dmax [2]: 45% | DC50 [1]: 0.56 nM

CC(C)Oc1ccc2[nH]nc(-c3cc(N4CCC(O[C@H]5CC[C@H](OC6CCN(c7ccc8c(c7)n(C)c(=O)n8C7CCC(=O)NC7=O)CC6)CC5)CC4)ncn3)c2c1 (single isomer, unassigned) [Compound 27, rel-3-[3-methyl-2-oxo-5-(4-{[(1r,4r)-4-[(1-{6-[5-(propan-2-yloxy)-1H-indazol-3-yl]pyrimidin-4-yl}piperidin-4-yl)oxy]cyclohexyl]oxy}piperidin-1-yl)-2,3-dihydro-1H-1,3-benzodiazol-1-yl]piperidine-2,6-dione]
Dmax [2]: 57% | DC50 [1]: 0.25 nM

Cn1c(=O)n(C2CCC(=O)NC2=O)c2ccc(N3CCC(O[C@H]4CC[C@H](CN5CCN(c6cc(-c7n[nH]c8ccc(C9(C#N)CC9)cc78)ncn6)CC5)CC4)CC3)cc21 (single isomer, unassigned) [Compound 63, rel-1-{3-[6-(4-{[(1r,4r)-4-({1-[1-(2,6-dioxopiperidin-3-yl)-3-methyl-2-oxo-2,3-dihydro-1H-1,3-benzodiazol-5-yl]piperidin-4-yl}oxy)cyclohexyl]methyl}piperazin-1-yl)pyrimidin-4-yl]-1H-indazol-5-yl}cyclopropane-1-carbonitrile]
Dmax [2]: 56% | DC50 [1]: 0.13 nM

COc1c(N2CCC(CN3CCN(CC4CCN(c5cc(-c6n[nH]c7ccc(OC8(C)CC8)cc67)ncn5)CC4)CC3)CC2)ccc2c1CN(C1CCC(=O)NC1=O)C2=O (stereo not drawn) [Comparative Example 4, reference compound]
Dmax [3]: 80% | DC50 [4]: 0.79 nM

CC1(Oc2ccc3[nH]nc(-c4cc(N5CCC(CN6CCN(CC7CCN(c8ccc9c(c8)ncn9C8CCC(=O)NC8=O)CC7)CC6)CC5)ncn4)c3c2)CC1 (stereo not drawn) [Compound 11, 3-{5-[4-({4-[(1-{6-[5-(1-methylcyclopropoxy)-1H-indazol-3-yl]pyrimidin-4-yl}piperidin-4-yl)methyl]piperazin-1-yl}methyl)piperidin-1-yl]-1H-1,3-benzodiazol-1-yl}piperidine-2,6-dione]
Dmax [2]: 62% | Dmax [3]: 62% | DC50 [1]: 1.6 nM | DC50 [4]: 1.6 nM

Cn1c(=O)n(C2CCC(=O)NC2=O)c2ccc(N3CCC(O[C@H]4CC[C@H](CN5CCN(c6cc(-c7n[nH]c8ccc([C@]9(C#N)CC9%10CC%10)cc78)ncn6)CC5)CC4)CC3)cc21 (single isomer, unassigned) [Compound 66, (1R**)-1-{3-[6-(4-{[(1r*,4r*)-4-({1-[1-(2,6-dioxopiperidin-3-yl)-3-methyl-2-oxo-2,3-dihydro-1H-1,3-benzodiazol-5-yl]piperidin-4-yl}oxy)cyclohexyl]methyl}piperazin-1-yl)pyrimidin-4-yl]-1H-indazol-5-yl}spiro[2.2]pentane-1-carbonitrile]
Dmax [2]: 61% | DC50 [1]: 0.14 nM

Cn1c(=O)n(C2CCC(=O)NC2=O)c2ccc(N3CCC(O[C@H]4C[C@H](CN5CCN(c6cc(-c7n[nH]c8cnc(OC9(C)CC9)cc78)ncn6)CC5)C4)CC3)cc21 (single isomer, unassigned) [Compound 35, rel-3-(3-methyl-2-oxo-5-{4-[(1r,3r)-3-[(4-{6-[5-(1-methylcyclopropoxy)-1H-pyrazolo[3,4-c]pyridin-3-yl]pyrimidin-4-yl}piperazin-1-yl)methyl]cyclobutoxy]piperidin-1-yl}-2,3-dihydro-1H-1,3-benzodiazol-1-yl)piperidine-2,6-dione]
Dmax [2]: 50% | DC50 [1]: 0.052 nM

Cn1c(=O)n(C2CCC(=O)NC2=O)c2ccc(N3CCC(O[C@H]4CC[C@H](CN5CCN(c6cc(-c7n[nH]c8ccc(C9(C#N)CCC9)cc78)ncn6)CC5)CC4)CC3)cc21 (single isomer, unassigned) [Compound 62, rel-1-{3-[6-(4-{[(1r,4r)-4-({1-[1-(2,6-dioxopiperidin-3-yl)-3-methyl-2-oxo-2,3-dihydro-1H-1,3-benzodiazol-5-yl]piperidin-4-yl}oxy)cyclohexyl]methyl}piperazin-1-yl)pyrimidin-4-yl]-1H-indazol-5-yl}cyclobutane-1-carbonitrile]
Dmax [2]: 54% | DC50 [1]: 0.3 nM

Cn1c(=O)n(C2CCC(=O)NC2=O)c2cccc(C#CCOC3CCN(CC4CCN(c5cc(-c6n[nH]c7ccc(OC8(C)CC8)cc67)ncn5)CC4)CC3)c21 (stereo not drawn) [Compound 18, 3-{3-methyl-4-[3-({1-[(1-{6-[5-(1-methylcyclopropoxy)-1H-indazol-3-yl]pyrimidin-4-yl}piperidin-4-yl)methyl]piperidin-4-yl}oxy)prop-1-yn-1-yl]-2-oxo-2,3-dihydro-1H-1,3-benzodiazol-1-yl}piperidine-2,6-dione]
Dmax [2]: 74% | DC50 [1]: 3.9 nM
